Laboratory results as given in patent publication US20060234944A1, “Beta-secretase inhibitors and methods of use” (Oklahoma Medical Reseach Foundation, priority 2001, published 2006).
*1 amine or outer side, *2 acyl side, *3 side chain or, on linkers, in order; H or OH if unused. Where a SMILES comes first, the peptide text is derived from it. [ ]: non-standard residue; d: D form. The star is where a group is joined. LeuΨ(S-CHOHCH2)Ala = CC(C)C[C@H](N[*:1])[C@@H](O)C[C@@H](C)C(=O)[*:2]; 5FAM = O=C1OC2(c3ccc(O)cc3Oc3cc(O)ccc32)c2ccc(C(=O)*)cc21; Ahx = NCCCCCC(=O)O

What was measured:
HEK293 cells = assay: Entry of fluorescently labelled inhibitors into cultured cells (flow cytometry); assay type: cell-based, human; settings: 10 to 30 minutes incubation
Method: Fluorescently labelled inhibitors or fluorescein (Fs) as a control were incubated with suspended cells for time intervals ranging from 10 to 30 minutes. Cells were fixed with paraformaldehyde and permeabilized in 0.2% Tween-20 in PBS for 6 minutes and incubated with anti-fluorescein-Alexa™ 488 antibody (Molecular Probes, Eugene, Oreg.) in order to enhance detection of intracellular inhibitor present from penetration. Flow cytometry (FACSCalibur™) and confocal fluorescent microscopy (Leica TCS NT™) were performed at the Flow and Image Cytometry Lab, OUHSC.

[1] = Transport of conjugated inhibitors into mouse blood cells, splenocytes and brain after i.p. injection
Method: Whole blood cells (with EDTA as anti-coagulant in the syringe or in the capillary tube) were isolated from anesthetized animals from the orbital artery or by heart puncture and diluted 1:10 in PBS. Prior to the harvest of other tissue samples, animals were anesthetized and perfused with 150 ml of neutral-buffered 10% formalin. Spleens were harvested intact. Brains were harvested and cerebral hemispheres separated, one for sectioning by cryostat, the other for single cell isolation for flow cytometry.
Sections of the brain hemispheres were obtained by soaking in OCT/PBS at 4° C. for overnight, recovered and frozen in Histo Prep Media.
To collect single cell suspensions, spleens and brain hemispheres were homogenized through a 30 μm screen and directly analyzed by flow cytometric analysis.

memapsin 2 = biological target: T1, memapsin 2 (Homo sapiens, UniProt P56817); assay: Inhibition of memapsin 2 cleavage of fluorogenic substrate FS-2 (Ki, Ki apparent, Vi/Vo, % inhibition); assay type: biochemical; settings: read-out: Ki for memapsin 2
T1 construct: made in house; host or cells: E. coli
Method: Ki is the inhibition equilibrium constant which indicates the ability of compounds to inhibit the β-secretase activity of memapsin 2 and memapsin 1. […] The K1 value is independent of the substrate, and converted from Ki apparent.
The Vi/Vo values depicted in Table 1 were determined at conditions under which the enzyme and inhibitor concentrations were equal (e.g., about 80 nM, 100 nM).
(§1) The relationship of Ki (independent of substrate concentration) to Kiapp is a function of substrate concentration in the assay and the Km for cleavage of the substrate by either memapsin 1 or memapsin 2 by the relationship: Kiapp=Ki(1+[S]/Km).
Ki is the inhibition equilibrium constant which indicates the ability of compounds to inhibit the β-secretase activity of memapsin 2 and memapsin 1. […] The Ki value is independent of the substrate, and converted from Ki apparent.
(§2) An aliquot of the inhibitor of known concentration in DMSO was diluted into 1.8 ml 0.1 M NaOAc, pH 4.0. DMSO and added to a final concentration of 10% (v/v), and memapsin 2 (final concentration of 80 nM), followed by a 20 minute equilibration at 37° C. Compounds were evaluated for the ability to inhibit memapsin 1 and memapsin 2 at concentrations between about 10 nM and about 10 μm of inhibitor.
(§3) The relationship of Ki (independent of substrate concentration) to Kiapp is a function of substrate concentration in the assay and the Km for cleavage of the substrate by either memapsin 1 or memapsin 2 by the relationship: Kiapp=Ki (1+[S]/Km).

plasma Aβ40 [2] = assay: Inhibition of Aβ production in tg2576 transgenic mice (plasma Aβ40 ELISA); assay type: in vivo
Method: Six-month-old tg2576 mice (n=21) were injected intraperitoneally (i.p.) 200 μg of conjugate CPI-3 or with control DMSO, in 200 μl of PBS. Plasma were collected from anesthetized animals by orbital bleed or sephaneous vein into heparinized capillary tubes and clarified by centrifugation. Plasma A≢ 1-40 levels were determined by capture ELISA (BioSource International, Camarillo, Calif.). The peptide analogue of CPI-3, with an amide group instead of the hydroxyethylene isostere was synthesized by SynPep (Camarillo, Calif.).
Since the conjugate inhibitors can cross the blood brain barrier in vivo, enter cells both in vitro and in vivo, and inhibit Aβ production in vitro, inhibition of Aβ production in vivo was determined. Tg2576 mice, expressing the Swedish mutation of the human amyloid precursor protein (including SEQ ID NO: 11) (Hsiao, K., et al., Science 274:99-102 (1996), the teachings of which are incorporated hereby in their entirety) were injected with CPI-3, which is identical in amino acid sequence to CPI-2 and lacks the amino-terminal fluorescein (FAM) derivative. Blood was collected from tg2576 animals at time intervals following injection of 400 μg of CPI-3.

memapsin 1 = biological target: T2, memapsin 1 (Homo sapiens, UniProt Q9Y5Z0); assay: Inhibition of memapsin 1 cleavage of fluorogenic substrate FS-2 (Ki apparent, % inhibition); assay type: biochemical; settings: Table 9; read-out: Ki apparent (nM) Mep1
T2 construct: made in house; host or cells: E. coli
T2 sequence (Q9Y5Z0 63-466): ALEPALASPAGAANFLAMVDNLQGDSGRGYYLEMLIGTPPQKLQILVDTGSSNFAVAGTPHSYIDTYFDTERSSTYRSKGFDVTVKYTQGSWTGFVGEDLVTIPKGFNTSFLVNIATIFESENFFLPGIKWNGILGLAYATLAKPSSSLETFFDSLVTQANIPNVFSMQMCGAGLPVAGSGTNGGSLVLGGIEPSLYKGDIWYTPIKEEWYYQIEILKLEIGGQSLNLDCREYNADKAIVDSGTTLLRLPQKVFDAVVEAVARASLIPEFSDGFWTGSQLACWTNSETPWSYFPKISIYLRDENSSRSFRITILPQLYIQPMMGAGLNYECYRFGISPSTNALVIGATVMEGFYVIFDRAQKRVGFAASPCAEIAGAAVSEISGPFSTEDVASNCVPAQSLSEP
Method: Vi/Vo depicts the ratio of initial cleavage velocities of the substrate FS-2 (Ermolieff, et al., Biochemistry […]:12450-12456 (2000)) by memapsin 1 or memapsin 2 in the absence (Vo) or presence (Vi) of a compound of the invention. […] The Vi/Vo values depicted in Table 1 were determined at conditions under which the enzyme and inhibitor concentrations were equal (e.g., about 80 nM, 100 nM).
as §1, §2, §3

plasma Aβ40 [3] = assay: Inhibition of Aβ production in APP/F transgenic mouse model of Alzheimer's disease (plasma Aβ40 sandwich ELISA); assay type: in vivo, mice; settings: control inhibitor, 163 nmoles i.p., 2 hours following injection
Method: Compounds MMI-138, MMI-165, and MMI-185 were synthesized as described above. Compounds were dissolved in 1 ml of dimethyl sulfoxide (DMSO) to a final concentration of about 1 mg/ml for MMI-165 and MMI-185, and about 10 mg/ml for MMI-138. […] Inhibitors were diluted into PBS or H2O immediately prior to injection, as described below. Inhibition constants were determined by methods described by Ermolieff, et al (Biochem. 39:12450-12456 (2000), the teachings of which are incorporated hereby in their entirety).
The tg2576 strain of mice was obtained from Taconic (Germantown, N.Y.). The APP/F strain of mice were obtained by mating the tg2576 mice with the FVB/N strain. To determine presence of the Swedish APP gene in APP/F mice, the DNA from mice was isolated according to the Qiagen Dneasy™ Tissue Kit. PCR (Qiagen kit and protocol) was used to amplify the fragment of DNA corresponding to the human Swedish APP gene. The following primers were used: […]
At the age of three months, animals of the Alzheimer's disease mouse model APP/F were injected intraperitoneally (i.p.) with about 163 nanomoles of either compounds MMI-138 (molecular weight 674 g/mole; 110 μg per animal, n=2), MMI-165 (molecular weight 626 g/mole; 102 μg per animal, n—2), or MMI-185 (molecular weight 686; 112 μg per animal, n—2).
Heparinized capillary tubes collected blood samples from anesthetized animals from either the retro-orbital sinus or from the saphenous vein at specified intervals following injection. The blood samples were transferred to sterile 1.5 mL microcentrifuge tubes, centrifuged at 5,100 RPM for 10 minutes to recover the plasma (supernatant), and stored at −70° C. until analysis for the Aβ40 by Enzyme Linked-Immuno-Sorbent Assay (ELISA).
A sandwich ELISA (BioSource International, Camarillo, Calif.) was used to determine the levels of Aβ40 in plasma samples. The ELISA utilizes a primary antibody specific for human Aβ for the immobilization of the amino-terminus and a detection antibody specific for the carboxy-terminal amino acids of Aβ40. A conjugated secondary antibody was used to detect the ternary complex, using a stabilized chromogen substrate, quantifiable following addition of 1 M HCl, with the optical densities measured at 450 nm. The procedures were followed according to the BioSource protocol. Optical densities were converted to pg/ml quantities of Aβ40 using a linear regression of the optical densities of standards obtained from the commercial kit, to their known concentrations.

plasma Aβ40 [4] = assay: as above; assay type: in vivo, mice; settings: unconjugated inhibitor, MW 935 g/mole
[5] = Martin et al., Aids 13:1227-32 (1999); cited from earlier work
[6] = four injections at 2 hour intervals

T1 sequence (P56817 41-454): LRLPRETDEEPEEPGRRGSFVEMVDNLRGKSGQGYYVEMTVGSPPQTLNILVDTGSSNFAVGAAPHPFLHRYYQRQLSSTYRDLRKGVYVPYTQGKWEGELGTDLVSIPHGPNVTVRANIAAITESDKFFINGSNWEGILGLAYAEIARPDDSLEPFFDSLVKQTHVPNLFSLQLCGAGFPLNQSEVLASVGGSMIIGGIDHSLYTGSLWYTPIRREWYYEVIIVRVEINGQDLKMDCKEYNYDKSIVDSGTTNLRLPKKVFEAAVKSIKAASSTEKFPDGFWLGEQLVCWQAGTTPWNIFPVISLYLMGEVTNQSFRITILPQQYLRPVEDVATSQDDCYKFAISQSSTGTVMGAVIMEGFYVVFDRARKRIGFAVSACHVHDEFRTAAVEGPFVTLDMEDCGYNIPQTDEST

SMILES: CC(C)C[C@H](NC(=O)[C@H](CC(N)=O)NC(=O)[C@@H](NC(=O)[C@H](CCC(=O)O)NC(=O)CCCCCNC(=O)c1ccc2c(c1)C(=O)OC21c2ccc(O)cc2Oc2cc(O)ccc21)C(C)C)[C@@H](O)C[C@@H](C)C(=O)N[C@@H](C)C(=O)N[C@@H](CCC(=O)O)C(=O)N[C@@H](Cc1ccccc1)C(=O)NCC(=O)N[C@@H](Cc1ccc(O)cc1)C(=O)NCC(=O)N[C@@H](CCCNC(=N)N)C(=O)N[C@@H](CCCCN)C(=O)N[C@@H](CCCCN)C(=O)N[C@@H](CCCNC(=N)N)C(=O)N[C@@H](CCCNC(=N)N)C(=O)N[C@@H](CCC(N)=O)C(=O)N[C@@H](CCCNC(=N)N)C(=O)N[C@@H](CCCNC(=N)N)C(=O)N[C@@H](CCCNC(=N)N)C(=O)O [CPI-1] ({5FAM-Ahx}-EVN[LeuΨ(S-CHOHCH2)Ala]AEFGYGRKKRRQRRR-OH)
- Penetration of cultured cells (intracellular fluorescence) (HEK293 cells): readily penetrated cultured cells within minutes
- Uptake into brain (fluorescence) ([1]; 8 hours after i.p. injection, flow cytometry or confocal microscopy of brain sections): penetration of the fluorescent conjugate into all brain cells
- Blood cells with strong fluorescence signal ([1]; whole blood 20 minutes after i.p. injection of 0.3 nmol): approximately 100%

SMILES: CC(C)C[C@H](NC(=O)[C@H](CCC(=O)O)NC(=O)CCCCCNC(=O)c1ccc2c(c1)C(=O)OC21c2ccc(O)cc2Oc2cc(O)ccc21)C(=O)N[C@@H](CC(=O)O)C(=O)N[C@@H](CC(C)C)[C@@H](O)C[C@@H](C)C(=O)N[C@H](C(=O)N[C@@H](CCC(=O)O)C(=O)N[C@@H](Cc1ccccc1)C(=O)NCC(=O)NCC(=O)N[C@H](CCCNC(=N)N)C(=O)N[C@H](CCCNC(=N)N)C(=O)N[C@H](CCCNC(=N)N)C(=O)N[C@H](CCCNC(=N)N)C(=O)N[C@H](CCCNC(=N)N)C(=O)N[C@H](CCCNC(=N)N)C(=O)N[C@H](CCCNC(=N)N)C(=O)N[C@H](CCCNC(=N)N)C(=O)N[C@H](CCCNC(=N)N)C(=O)O)C(C)C [CPI-2] ({5FAM-Ahx}-ELD[LeuΨ(S-CHOHCH2)Ala]VEFGG[dR][dR][dR][dR][dR][dR][dR][dR][dR]-OH)
- Penetration of cultured cells (intracellular fluorescence) (HEK293 cells): readily penetrated cultured cells within minutes

SMILES: CC(C)C[C@H](NC(=O)[C@@H](N)CCC(=O)O)C(=O)N[C@@H](CC(=O)O)C(=O)N[C@@H](CC(C)C)[C@@H](O)C[C@@H](C)C(=O)N[C@H](C(=O)N[C@@H](CCC(=O)O)C(=O)N[C@@H](Cc1ccccc1)C(=O)NCC(=O)NCC(=O)N[C@H](CCCNC(=N)N)C(=O)N[C@H](CCCNC(=N)N)C(=O)N[C@H](CCCNC(=N)N)C(=O)N[C@H](CCCNC(=N)N)C(=O)N[C@H](CCCNC(=N)N)C(=O)N[C@H](CCCNC(=N)N)C(=O)N[C@H](CCCNC(=N)N)C(=O)N[C@H](CCCNC(=N)N)C(=O)N[C@H](CCCNC(=N)N)C(=O)O)C(C)C [CPI-3] (H-ELD[LeuΨ(S-CHOHCH2)Ala]VEFGG[dR][dR][dR][dR][dR][dR][dR][dR][dR]-OH; N-terminus and C-terminus assumed)
- Ki (memapsin 2): 35 nM
- Plasma Aβ40 level relative to initial value (plasma Aβ40 [2]; 2 hours following i.p. injection): about one third
- Aβ level, average low as % of the average initial value (plasma Aβ40 [2]; [6]): 29%
- Inhibition of plasma Aβ (plasma Aβ40 [2]; [6]): about 80%
- Plasma Aβ40 relative to PBS control two hours following injection (plasma Aβ40 [2]; i.p., various doses): significant dose-dependent reduction
- Time of return of plasma Aβ40 to the initial value (plasma Aβ40 [2]; single i.p. injection): ≤ 8 h

SMILES: CC(C)C[C@H](NC(=O)[C@@H](N)CCC(=O)O)C(=O)N[C@@H](CC(=O)O)C(=O)N[C@@H](CC(C)C)[C@@H](O)C[C@@H](C)C(=O)N[C@H](C(=O)N[C@@H](CCC(=O)O)C(=O)N[C@@H](Cc1ccccc1)C(=O)O)C(C)C [OM00-3, ELDL*AVEF] (H-ELD[LeuΨ(S-CHOHCH2)Ala]VEF-OH; N-terminus assumed)
- Effect on plasma Aβ40 levels (plasma Aβ40 [2]; i.p. injection (FIG. 21C)): did not reduce plasma Aβ40 levels
- Ki (memapsin 1): 0.18 nM
- Decrease of plasma Aβ40 (plasma Aβ40 [3]): 16%
- Inhibition of Aβ40 production in vivo (plasma Aβ40 [4]): failed to inhibit Aβ40 production

SMILES: CC(C)(C)NC(=O)[C@@H]1CN(Cc2cccnc2)CCN1C[C@@H](O)C[C@@H](Cc1ccccc1)C(=O)N[C@H]1c2ccccc2C[C@H]1O [indinavir]
- Crossing of the blood-brain barrier [5]: can cross the blood-brain barrier
